Literature values, collected in patent publication US20090053275A1, “Foam/spray producing compositions and dispencing system therefor” (priority 2000, published 2009).

Oc1cc(Cl)ccc1Oc1ccc(Cl)cc1Cl [triclosan]
water solubility: not water soluble
